# US20250147039A1, “Compounds for complexation of rare earth elements and/or s-, p-, d- block metals, their coordination compounds, peptide conjugates, method of their preparation and use thereof” (USTAV ORGANICKE CHEMIE A BIOCHEMIE AV CR V.V.I., priority 2021, published 2025)
# Columns and labels:
# [1] = Formation of 1,5-cz-[M(Lig)] from Lig and M^III ions (metal dependent click-zip) (Charts 4, 5); assay type: physicochemical; settings: MOPS/NaOH buffer pH 7.0; for conversion to 1,5-cz-[M(Lig)], Sc^III / conversion to 1,5-cz-[M(Lig)], Y^III: TD728, TD827 in 50% i-PrOH; for conversion to 1,5-cz-[M(Lig)], Y^III: TD714 sum of two diastereoisomers
# [2] = Formation of 1,5-cz-[Ln(Lig)] from Lig and Ln^III ions (metal dependent click-zip), MOPS/NaOH buffer pH 7.0, analytical HPLC (Charts 1, 2); settings: MOPS/NaOH buffer pH 7.0
smiles,measurement,setting,value
C#Cc1cccc(CN2CCN(CC(=O)O)CCN(Cc3cc(C(F)(F)F)cc(CN=[N+]=[N-])n3)CCN(CC(=O)O)CC2)n1 [TD1063],"conversion to 1,5-cz-[M(Lig)], Sc^III",[1]; 1 week at 80° C.,8%
same,"conversion to 1,5-cz-[M(Lig)], Y^III",[1]; 1 week at 80° C.,91%
same,"conversion to 1,5-cz-[M(Lig)], Sc^III",[1]; 1 hour at 80° C.,1%
same,"conversion to 1,5-cz-[M(Lig)], Y^III",[1]; 1 hour at 80° C.,20%
same,"conversion to 1,5-cz-[Ln(Lig)], Ce^III",[2]; after 1 week at 80° C.,1%
same,"conversion to 1,5-cz-[Ln(Lig)], Ce^III",[2]; after 1 hour at 80° C.,1%
same,"conversion to 1,5-cz-[Ln(Lig)], Dy^III",[2]; after 1 week at 80° C.,86%
same,"conversion to 1,5-cz-[Ln(Lig)], Dy^III",[2]; after 1 hour at 80° C.,15%
same,"conversion to 1,5-cz-[Ln(Lig)], Er^III",[2]; after 1 week at 80° C.,93%
same,"conversion to 1,5-cz-[Ln(Lig)], Er^III",[2]; after 1 hour at 80° C.,33%
same,"conversion to 1,5-cz-[Ln(Lig)], Eu^III",[2]; after 1 week at 80° C.,73%
same,"conversion to 1,5-cz-[Ln(Lig)], Eu^III",[2]; after 1 hour at 80° C.,4%
same,"conversion to 1,5-cz-[Ln(Lig)], Gd^III",[2]; after 1 week at 80° C.,74%
same,"conversion to 1,5-cz-[Ln(Lig)], Gd^III",[2]; after 1 hour at 80° C.,5%
same,"conversion to 1,5-cz-[Ln(Lig)], Ho^III",[2]; after 1 week at 80° C.,90%
same,"conversion to 1,5-cz-[Ln(Lig)], Ho^III",[2]; after 1 hour at 80° C.,22%
same,"conversion to 1,5-cz-[Ln(Lig)], La^III",[2]; after 1 week at 80° C.,5%
same,"conversion to 1,5-cz-[Ln(Lig)], La^III",[2]; after 1 hour at 80° C.,0%
same,"conversion to 1,5-cz-[Ln(Lig)], Lu^III",[2]; after 1 week at 80° C.,95%
same,"conversion to 1,5-cz-[Ln(Lig)], Lu^III",[2]; after 1 hour at 80° C.,54%
same,"conversion to 1,5-cz-[Ln(Lig)], Nd^III",[2]; after 1 week at 80° C.,52%
same,"conversion to 1,5-cz-[Ln(Lig)], Nd^III",[2]; after 1 hour at 80° C.,2%
same,"conversion to 1,5-cz-[Ln(Lig)], Pr^III",[2]; after 1 week at 80° C.,35%
same,"conversion to 1,5-cz-[Ln(Lig)], Pr^III",[2]; after 1 hour at 80° C.,1%
same,"conversion to 1,5-cz-[Ln(Lig)], Sm^III",[2]; after 1 week at 80° C.,57%
same,"conversion to 1,5-cz-[Ln(Lig)], Sm^III",[2]; after 1 hour at 80° C.,3%
same,"conversion to 1,5-cz-[Ln(Lig)], Tb^III",[2]; after 1 week at 80° C.,83%
same,"conversion to 1,5-cz-[Ln(Lig)], Tb^III",[2]; after 1 hour at 80° C.,10%
same,"conversion to 1,5-cz-[Ln(Lig)], Tm^III",[2]; after 1 week at 80° C.,93%
same,"conversion to 1,5-cz-[Ln(Lig)], Tm^III",[2]; after 1 hour at 80° C.,45%
same,"conversion to 1,5-cz-[Ln(Lig)], Yb^III",[2]; after 1 week at 80° C.,95%
same,"conversion to 1,5-cz-[Ln(Lig)], Yb^III",[2]; after 1 hour at 80° C.,53%
C#Cc1cccc(CN2CCN(CC(=O)O)CCN(Cc3cc(C(=O)OC)cc(CN=[N+]=[N-])n3)CCN(CC(=O)O)CC2)n1 [TD1092],"conversion to 1,5-cz-[Ln(Lig)] with hydrolysed group in the side chain, Sc^III",[1]; 1 week at 80° C.,17%
same,"conversion to 1,5-cz-[Ln(Lig)] with hydrolysed group in the side chain, Y^III",[1]; 1 week at 80° C.,95%
same,"conversion to 1,5-cz-[M(Lig)], Sc^III",[1]; 1 week at 80° C.,0%
same,"conversion to 1,5-cz-[M(Lig)], Y^III",[1]; 1 week at 80° C.,0%
same,"conversion to 1,5-cz-[Ln(Lig)] with hydrolysed group in the side chain, Sc^III",[1]; 1 hour at 80° C.,0%
same,"conversion to 1,5-cz-[Ln(Lig)] with hydrolysed group in the side chain, Y^III",[1]; 1 hour at 80° C.,12%
same,"conversion to 1,5-cz-[M(Lig)], Sc^III",[1]; 1 hour at 80° C.,1%
same,"conversion to 1,5-cz-[M(Lig)], Y^III",[1]; 1 hour at 80° C.,6%
same,"conversion to 1,5-cz-[Ln(Lig)] with hydrolysed group in the side chain, Ce^III",[2]; after 1 week at 80° C.,37%
same,"conversion to 1,5-cz-[Ln(Lig)], Ce^III",[2]; after 1 week at 80° C.,0%
same,"conversion to 1,5-cz-[Ln(Lig)] with hydrolysed group in the side chain, Ce^III",[2]; after 1 hour at 80° C.,0%
same,"conversion to 1,5-cz-[Ln(Lig)], Ce^III",[2]; after 1 hour at 80° C.,0%
same,"conversion to 1,5-cz-[Ln(Lig)] with hydrolysed group in the side chain, Dy^III",[2]; after 1 week at 80° C.,94%
same,"conversion to 1,5-cz-[Ln(Lig)], Dy^III",[2]; after 1 week at 80° C.,0%
same,"conversion to 1,5-cz-[Ln(Lig)] with hydrolysed group in the side chain, Dy^III",[2]; after 1 hour at 80° C.,8%
same,"conversion to 1,5-cz-[Ln(Lig)], Dy^III",[2]; after 1 hour at 80° C.,5%
same,"conversion to 1,5-cz-[Ln(Lig)] with hydrolysed group in the side chain, Er^III",[2]; after 1 week at 80° C.,94%
same,"conversion to 1,5-cz-[Ln(Lig)], Er^III",[2]; after 1 week at 80° C.,0%
same,"conversion to 1,5-cz-[Ln(Lig)] with hydrolysed group in the side chain, Er^III",[2]; after 1 hour at 80° C.,19%
same,"conversion to 1,5-cz-[Ln(Lig)], Er^III",[2]; after 1 hour at 80° C.,12%
same,"conversion to 1,5-cz-[Ln(Lig)] with hydrolysed group in the side chain, Eu^III",[2]; after 1 week at 80° C.,91%
same,"conversion to 1,5-cz-[Ln(Lig)], Eu^III",[2]; after 1 week at 80° C.,0%
same,"conversion to 1,5-cz-[Ln(Lig)] with hydrolysed group in the side chain, Eu^III",[2]; after 1 hour at 80° C.,2%
same,"conversion to 1,5-cz-[Ln(Lig)], Eu^III",[2]; after 1 hour at 80° C.,2%
same,"conversion to 1,5-cz-[Ln(Lig)] with hydrolysed group in the side chain, Gd^III",[2]; after 1 week at 80° C.,92%
same,"conversion to 1,5-cz-[Ln(Lig)], Gd^III",[2]; after 1 week at 80° C.,0%
same,"conversion to 1,5-cz-[Ln(Lig)] with hydrolysed group in the side chain, Gd^III",[2]; after 1 hour at 80° C.,3%
same,"conversion to 1,5-cz-[Ln(Lig)], Gd^III",[2]; after 1 hour at 80° C.,2%
same,"conversion to 1,5-cz-[Ln(Lig)] with hydrolysed group in the side chain, Ho^III",[2]; after 1 week at 80° C.,94%
same,"conversion to 1,5-cz-[Ln(Lig)], Ho^III",[2]; after 1 week at 80° C.,0%
same,"conversion to 1,5-cz-[Ln(Lig)] with hydrolysed group in the side chain, Ho^III",[2]; after 1 hour at 80° C.,13%
same,"conversion to 1,5-cz-[Ln(Lig)], Ho^III",[2]; after 1 hour at 80° C.,7%
same,"conversion to 1,5-cz-[Ln(Lig)] with hydrolysed group in the side chain, La^III",[2]; after 1 week at 80° C.,40%
same,"conversion to 1,5-cz-[Ln(Lig)], La^III",[2]; after 1 week at 80° C.,0%
same,"conversion to 1,5-cz-[Ln(Lig)] with hydrolysed group in the side chain, La^III",[2]; after 1 hour at 80° C.,0%
same,"conversion to 1,5-cz-[Ln(Lig)], La^III",[2]; after 1 hour at 80° C.,0%
same,"conversion to 1,5-cz-[Ln(Lig)] with hydrolysed group in the side chain, Lu^III",[2]; after 1 week at 80° C.,97%
same,"conversion to 1,5-cz-[Ln(Lig)], Lu^III",[2]; after 1 week at 80° C.,0%
same,"conversion to 1,5-cz-[Ln(Lig)] with hydrolysed group in the side chain, Lu^III",[2]; after 1 hour at 80° C.,30%
same,"conversion to 1,5-cz-[Ln(Lig)], Lu^III",[2]; after 1 hour at 80° C.,26%
same,"conversion to 1,5-cz-[Ln(Lig)] with hydrolysed group in the side chain, Nd^III",[2]; after 1 week at 80° C.,73%
same,"conversion to 1,5-cz-[Ln(Lig)], Nd^III",[2]; after 1 week at 80° C.,0%
same,"conversion to 1,5-cz-[Ln(Lig)] with hydrolysed group in the side chain, Nd^III",[2]; after 1 hour at 80° C.,0%
same,"conversion to 1,5-cz-[Ln(Lig)], Nd^III",[2]; after 1 hour at 80° C.,1%
same,"conversion to 1,5-cz-[Ln(Lig)] with hydrolysed group in the side chain, Pr^III",[2]; after 1 week at 80° C.,62%
same,"conversion to 1,5-cz-[Ln(Lig)], Pr^III",[2]; after 1 week at 80° C.,0%
same,"conversion to 1,5-cz-[Ln(Lig)] with hydrolysed group in the side chain, Pr^III",[2]; after 1 hour at 80° C.,0%
same,"conversion to 1,5-cz-[Ln(Lig)], Pr^III",[2]; after 1 hour at 80° C.,0%
same,"conversion to 1,5-cz-[Ln(Lig)] with hydrolysed group in the side chain, Sm^III",[2]; after 1 week at 80° C.,88%
same,"conversion to 1,5-cz-[Ln(Lig)], Sm^III",[2]; after 1 week at 80° C.,0%
same,"conversion to 1,5-cz-[Ln(Lig)] with hydrolysed group in the side chain, Sm^III",[2]; after 1 hour at 80° C.,2%
same,"conversion to 1,5-cz-[Ln(Lig)], Sm^III",[2]; after 1 hour at 80° C.,1%
same,"conversion to 1,5-cz-[Ln(Lig)] with hydrolysed group in the side chain, Tb^III",[2]; after 1 week at 80° C.,93%
same,"conversion to 1,5-cz-[Ln(Lig)], Tb^III",[2]; after 1 week at 80° C.,0%
same,"conversion to 1,5-cz-[Ln(Lig)] with hydrolysed group in the side chain, Tb^III",[2]; after 1 hour at 80° C.,6%
same,"conversion to 1,5-cz-[Ln(Lig)], Tb^III",[2]; after 1 hour at 80° C.,3%
same,"conversion to 1,5-cz-[Ln(Lig)] with hydrolysed group in the side chain, Tm^III",[2]; after 1 week at 80° C.,95%
same,"conversion to 1,5-cz-[Ln(Lig)], Tm^III",[2]; after 1 week at 80° C.,0%
same,"conversion to 1,5-cz-[Ln(Lig)] with hydrolysed group in the side chain, Tm^III",[2]; after 1 hour at 80° C.,26%
same,"conversion to 1,5-cz-[Ln(Lig)], Tm^III",[2]; after 1 hour at 80° C.,19%
same,"conversion to 1,5-cz-[Ln(Lig)] with hydrolysed group in the side chain, Yb^III",[2]; after 1 week at 80° C.,96%
same,"conversion to 1,5-cz-[Ln(Lig)], Yb^III",[2]; after 1 week at 80° C.,0%
same,"conversion to 1,5-cz-[Ln(Lig)] with hydrolysed group in the side chain, Yb^III",[2]; after 1 hour at 80° C.,30%
same,"conversion to 1,5-cz-[Ln(Lig)], Yb^III",[2]; after 1 hour at 80° C.,24%
